In patent publication US11117932B2, “Peptides for specific inhibition of Jag 1-Notch 1 pathway” (The Hong Kong Polytechnic University, priority 2018, dated 2021):
Residues, ends and D or L forms follow the SMILES beside them.

Key:
S1-M1-80 cells = experiment: cells; assay type: cell-based, human
Description: (§1) HCT-116, HCT-15, S1-M1-80, S1, L929, HEK293T-Jagged-1 were seeded in each well of a 96-well plate with a series of concentrations (a serial dilution from 1000μM to 0.5 μM) of peptides or drugs including DAPT, Topotecan at 37° C. with 5% CO2 in a humidified incubator for 3 days. Percentage of survival was determined by MTS assay as described.

HEK-293T-Jagged-1 cells = assay type: cell-based, human
Description: as §1

in vitro = assay type: cell-based; conditions: mouse
Description: as §1

S1 = experiment: cells; assay type: cell-based, human
Description: as §1

Jag1-Notch1 signalling = experiment: Co-culture Notch luciferase reporter assay, Jag1-induced; assay type: cell-based, human; conditions: for inhibition of Jag1-induced Notch signaling compared with N1: peptides 25 μM
Description: Jag1-Notch interaction is measured using a co-culture assay with one cell line expressing the Notch ligand Jagged1 (Jag1) and a second expressing Notch (either Notch1 or Notch2). A firefly luciferase reporter plasmid with 12 upstream CBF-1 binding site was transfected into signalling-receiving cells to report on Notch signalling (FIG. 1D). Peptides were tested for their activity in inhibiting Jag1-induced Notch signalling. Complete inhibition is equivalent to the background signal seen without induction (−Jag1). […] N1 (SEQ ID NO: 10) is a 15-mer derived from the EGF-like repeat 12 of Notch1 (C467-G481). This is consistent with the structural information that EGF-like repeat 12 of Notch1 is near the MNNL domain of Jag1 (FIGS. 1B and C).
(§2) Specificity of N1 (SEQ ID NO: 10) peptide in inhibiting different Notch ligand-induced Notch signaling was investigated using in vitro co-culture assay. HEK293T or CHO cells expressing Notch ligand (either Jag1, DLL1 or DLL4) are co-cultured with Notch1- or Notch2-expressing cells. Notch1 and Notch2 signalling can be measured by either luciferase reporter assay or by the formation of NICD1 and NICD2. […] Half inhibition is reached at between 50 to 100 μM. […] This contrasts with DAPT which affects all the above interactions.
(§3) HEK-293T-Jagged-1 cells were seeded in 24-well plates in triplicate per sample group, and human HCT-116 cells were seeded in one 60 mm dish. Cells were allowed to settle, and were transfected the following day after the medium was changed to be antibiotic free. HCT-116 cells were transfected with 12×CSL-Luc and Renilla-Luc, using Lipofectamine® 3000 (Invitrogen™), according to the manufacturer's instructions. After 24 hours, HCT-116 cells were scraped and 2.5×10^4 cells in 1 mL complete medium per well were added to both 24-well plates. Peptides were treated to cells with the desired concentrations. N—[N-(3,5-difluorophenacetyl)-L-alanyl]-S-phenylglycine t-butyl ester (DAPT) was used as positive control. Cells were co-cultured for 12 hours before measure the luciferase activity. After incubation, cells were lysed with luciferase lysis buffer. Notch activity in cells expressing the 12×CSL-Luc reporter construct was measured by a luciferase assay using Dual-Luciferase® Reporter Assay System (Promega).

DLL1-Notch1 signalling = experiment: Co-culture Notch luciferase reporter assay, DLL1-induced; assay type: cell-based, human; conditions: DAPT 50 μM
Description: as §2, §3

DLL4-Notch1 signalling = experiment: Co-culture Notch luciferase reporter assay, DLL4-induced; assay type: cell-based, human; conditions: DAPT 50 μM
Description: as §2, §3

Jag1-induced NICD1 = experiment: Co-culture assay, Jag1-induced NICD1 level; assay type: cell-based, human; conditions: N1 at 50 μM
Description: as §2
The cleaved Notch1 (Val1744) (D3B8) rabbit monoclonal antibody (CST) and Notch2 (Cleaved Ala1734) rabbit monoclonal antibody at 1:1000 dilution were used to detect human Notch intracellular domain (NICD1) and Notch2 intracellular domain (NICD2), respectively. β-actin was detected using a mouse monoclonal antibody (Santa Cruz Biotechnology) at 1:3000 dilution.

Compound	IC50 (S1-M1-80 cells) [µM]	IC50 at 3 days (in vitro) [µM]	IC50 (S1) [µM]	inhibition of Jag1-induced Notch signaling compared with N1 (Jag1-Notch1 signalling)	inhibition of DLL1-Notch1 signalling (DLL1-Notch1 signalling)	inhibition of DLL4-Notch1 signalling (DLL4-Notch1 signalling)	IC50 (HEK-293T-Jagged-1 cells) [µM]	inhibition of Jag1-induced Notch1 signalling, dose response (Jag1-Notch1 signalling; reporter assay, DAPT 50 μM)	Jag1-induced NICD1 level (Jag1-induced NICD1)
CC[C@H](C)[C@H](N)C(=O)N[C@@H](CS)C(=O)N[C@@H](CC(C)C)C(=O)N[C@@H](CC(=O)O)C(=O)N[C@@H](CCC(N)=O)C(=O)N[C@H](C(=O)NCC(=O)N[C@@H](CCC(=O)O)C(=O)N[C@@H](Cc1ccccc1)C(=O)N[C@@H](CCC(N)=O)C(=O)N[C@@H](CS)C(=O)N[C@H](C(=O)N[C@@H](CS)C(=O)N[C@@H](CCC(=O)O)C(=O)O)[C@@H](C)CC)[C@@H](C)CC [N102T466I-M479E, ICLDQIGEFQCICE] (H-ICLDQIGEFQCICE-OH; N-terminus and C-terminus assumed)	15.2 ± 4.2	> 100	–	–	–	–	> 100	–	–
CC[C@H](C)[C@H](NC(=O)[C@H](CS)NC(=O)[C@H](CCC(N)=O)NC(=O)[C@H](Cc1ccccc1)NC(=O)[C@H](CCC(=O)O)NC(=O)CNC(=O)[C@@H](NC(=O)[C@H](CCC(N)=O)NC(=O)[C@H](CC(=O)O)NC(=O)[C@H](CC(C)C)NC(=O)[C@@H](N)CS)[C@@H](C)CC)C(=O)O [Peptide N104, CLDQIGEFQCI] (H-CLDQIGEFQCI-OH; N-terminus and C-terminus assumed)	28.4 ± 0.6	–	> 50	stronger inhibitory effect than N1	–	–	–	–	–
CC[C@H](C)[C@H](NC(=O)[C@H](CCC(N)=O)NC(=O)[C@H](CC(=O)O)NC(=O)[C@H](CC(C)C)NC(=O)[C@H](CS)NC(=O)[C@@H](N)Cc1ccccc1)C(=O)NCC(=O)N[C@@H](CCC(=O)O)C(=O)N[C@@H](Cc1ccccc1)C(=O)N[C@@H](CCC(N)=O)C(=O)N[C@@H](CS)C(=O)N[C@H](C(=O)N[C@@H](CS)C(=O)N[C@@H](CCC(=O)O)C(=O)O)[C@@H](C)CC [N102T466F-M479E, FCLDQIGEFQCICE] (H-FCLDQIGEFQCICE-OH; N-terminus and C-terminus assumed)	43.9 ± 3.4	> 100	–	–	–	–	> 100	–	–
CC[C@H](C)[C@H](NC(=O)[C@H](CS)NC(=O)[C@H](CCC(N)=O)NC(=O)[C@H](Cc1ccccc1)NC(=O)[C@H](CCC(=O)O)NC(=O)CNC(=O)[C@H](Cc1c[nH]c2ccccc12)NC(=O)[C@H](CCC(N)=O)NC(=O)[C@H](CC(=O)O)NC(=O)[C@H](CC(C)C)NC(=O)[C@@H](N)CS)C(=O)N[C@@H](CS)C(=O)N[C@@H](CCSC)C(=O)O [Peptide N102I471W, CLDQWGEFQCICM] (H-CLDQWGEFQCICM-OH; N-terminus and C-terminus assumed)	> 50	–	> 100	slight improvement	–	–	–	–	–
CC[C@H](C)[C@H](NC(=O)[C@H](CCC(N)=O)NC(=O)[C@H](CC(=O)O)NC(=O)[C@H](CC(C)C)NC(=O)[C@H](CS)NC(=O)[C@@H](N)Cc1c[nH]c2ccccc12)C(=O)NCC(=O)N[C@@H](CCC(=O)O)C(=O)N[C@@H](Cc1ccccc1)C(=O)N[C@@H](CCC(N)=O)C(=O)N[C@@H](CS)C(=O)N[C@H](C(=O)N[C@@H](CS)C(=O)N[C@@H](CCC(=O)O)C(=O)O)[C@@H](C)CC [N102T466W-M479E, WCLDQIGEFQCICE] (H-WCLDQIGEFQCICE-OH; N-terminus and C-terminus assumed)	54.3 ± 5.2	> 100	–	–	–	–	> 100	–	–

More lines, in order of falling IC50 (S1-M1-80 cells), values ahead:

IC50 (S1-M1-80 cells) [µM]	IC50 at 3 days (in vitro) [µM]	IC50 (S1) [µM]	inhibition of Jag1-induced Notch signaling compared with N1 (Jag1-Notch1 signalling)	inhibition of DLL1-Notch1 signalling (DLL1-Notch1 signalling)	inhibition of DLL4-Notch1 signalling (DLL4-Notch1 signalling)	Compound	IC50 (HEK-293T-Jagged-1 cells) [µM]	inhibition of Jag1-induced Notch1 signalling, dose response (Jag1-Notch1 signalling; reporter assay, DAPT 50 μM)	Jag1-induced NICD1 level (Jag1-induced NICD1)
14.9 ± 4.8	> 100	–	–	–	–	CC[C@H](C)[C@H](NC(=O)[C@H](CCC(N)=O)NC(=O)[C@H](CC(=O)O)NC(=O)[C@H](CC(C)C)NC(=O)[C@H](CS)NC(=O)[C@@H](N)Cc1ccc(O)cc1)C(=O)NCC(=O)N[C@@H](CCC(=O)O)C(=O)N[C@@H](Cc1ccccc1)C(=O)N[C@@H](CCC(N)=O)C(=O)N[C@@H](CS)C(=O)N[C@H](C(=O)N[C@@H](CS)C(=O)N[C@@H](CCC(=O)O)C(=O)O)[C@@H](C)CC [N102T466Y-M479E, YCLDQIGEFQCICE] (H-YCLDQIGEFQCICE-OH; N-terminus and C-terminus assumed)	> 100	–	–
10.2 ± 0.4	–	> 50	stronger inhibitory effect than N1	–	–	CC[C@H](C)[C@H](NC(=O)[C@H](CCC(N)=O)NC(=O)[C@H](CC(=O)O)NC(=O)[C@H](CC(C)C)NC(=O)[C@@H](N)CS)C(=O)NCC(=O)N[C@@H](CCC(=O)O)C(=O)N[C@@H](Cc1ccccc1)C(=O)N[C@@H](CCC(N)=O)C(=O)N[C@@H](CS)C(=O)N[C@H](C(=O)N[C@@H](CS)C(=O)N[C@@H](CCSC)C(=O)O)[C@@H](C)CC [Peptide N102, CLDQIGEFQCICM] (H-CLDQIGEFQCICM-OH; N-terminus and C-terminus assumed)	–	–	–
5.8 ± 0.2	> 100	> 50	biggest improvement	did not interfere	did not interfere	CC[C@H](C)[C@H](NC(=O)[C@H](CCC(N)=O)NC(=O)[C@H](CC(=O)O)NC(=O)[C@H](CC(C)C)NC(=O)[C@@H](N)CS)C(=O)NCC(=O)N[C@@H](CCC(=O)O)C(=O)N[C@@H](Cc1ccccc1)C(=O)N[C@@H](CCC(N)=O)C(=O)N[C@@H](CS)C(=O)N[C@H](C(=O)N[C@@H](CS)C(=O)N[C@@H](CC(=O)O)C(=O)O)[C@@H](C)CC [Peptide N102M479D, CLDQIGEFQCICD] (H-CLDQIGEFQCICD-OH; N-terminus and C-terminus assumed)	> 100	inhibited Jag1-induced Notch1 signaling in dose dependent manner	significantly decreased expression level of NICD1
5.4 ± 1.2	> 100	–	–	–	–	CC[C@H](C)[C@H](NC(=O)[C@H](CCC(N)=O)NC(=O)[C@H](CC(=O)O)NC(=O)[C@H](CC(C)C)NC(=O)[C@H](CS)NC(=O)[C@@H](N)CC(C)C)C(=O)NCC(=O)N[C@@H](CCC(=O)O)C(=O)N[C@@H](Cc1ccccc1)C(=O)N[C@@H](CCC(N)=O)C(=O)N[C@@H](CS)C(=O)N[C@H](C(=O)N[C@@H](CS)C(=O)N[C@@H](CCC(=O)O)C(=O)O)[C@@H](C)CC [N102T466L-M479E, LCLDQIGEFQCICE] (H-LCLDQIGEFQCICE-OH; N-terminus and C-terminus assumed)	> 100	–	–
